Measured values: PMC12843386, “Ly6/uPAR Protein from Asterias rubens Starfish Stimulates Migration and Invasion of Human Epithelial and Immune Cells” (Marine Drugs, 2025)
Read-outs that look alike come from different tables or passages of the source. Bridges are numbered along the chain shown (N, C = ends). Where no end group is shown, it is not given here.

What was measured:
[1] = ELISA binding to immobilized membrane fraction of A. rubens arm tip; design: species or system Asterias rubens; conditions: detection by anti-Lystar5 serum, n = 4 (Figure 3b)
Text: Figure 2 Design of the peptides mimicking the loop and “head” regions of Lystar5 and ELISA experiments. (a) Amino acid sequence alignment of Lystar5 and the peptides: loop I (rose), loop II (orange), loop III (blue), and head (green). Cys residues are shown in gold. Disulfide bonds are shown in brackets. Sequences of the peptides are highlighted by colors corresponding to the Lystar5 loops. The amino acids changed to increase the peptides’ stability are designated by lowercase letters. (b) Spatial structure of Lystar5 predicted from the sequence using ESMFold with regions corresponding to the synthesized peptides colored as shown in panel (a,c). Design of ELISA experiments for proof of detection of Lystar5 and the peptides by the anti-Lystar5 serum of immunized mice (left), identification of the active site of Lystar5, and evaluation of the interaction of Lystar5 and the peptides using the immobilized membrane fraction of different A. rubens tissues (center), and study of complex formation between nAChR and integrin subunits in HaCAT keratinocytes (right). […] Recombinant analogue of Lynx2 was used as a negative control. […] Bound compounds were detected by the anti-Lystar5 serum of immunized mouse. […]

HaCaT keratinocytes = test: Wound-healing (scratch) assay, collective migration of HaCaT keratinocytes; assay type: cell-based, human; conditions: 10 µM peptide, 24 h, serum-free; % of untreated control; n = 14 (Figure 4a,b)
Experimental: Human HaCaT keratinocytes (ATCC, Manassas, VA, USA) were grown (37 °C, 8% CO2) in a DME medium with phenol red (PanEco, Moscow, Russia), 10% fetal calf serum (Thermo Fisher Scientific, Waltham, […], USA), and 2 mM L-glutamine (PanEco). Human peripheral blood monocytes were isolated from human donors’ blood (informed written consent was obtained from the donors) with Lymphosep media (MP Biomedicals, Irvine, CA, USA) and cultivated in RPMI-1640 medium with phenol red (PanEco, Russia), 10% fetal calf serum (Thermo Fisher Scientific), and 2 mM L-glutamine (PanEco). All cells were routinely tested for the absence of mycoplasma contamination (Mycoreport kit, Evrogen, Moscow, Russia).
The in vitro wound healing (scratch) assay was performed as described in [35]. In brief, HaCaT cells were seeded in 96-well cell culture plates (5 × 10^4 cells/well) and grown for 24 h. […] Pictures were analyzed after 0 and 24 h at 20× magnification at CloneSelect Imager (Molecular Devices, San Jose, CA, USA). The center of the plate was marked as a central reference point to ensure that the same area was recorded during the time course. Digital images were taken, and the scratch area was quantified using ImageJ 1.54f software (NIH, Bethesda, MD, USA) and MS Excel 365 (Microsoft, Redmond, WA, USA) software by measuring the % of the scratch surface occupied by migrating cells.

[2] = cited from earlier work
Text: Ly6/uPAR proteins from different organisms are currently being considered as prototypes for new drugs.

## VLKTCTSRQDRCG (disulfide 5-12 (inferred)) [head, C-amidated peptide mimicking the "head" region of Lystar5: […]]
[1]
  binding to the immobilized membrane fraction of the arm tip: neither Lystar5 nor its loops or “head” bound
HaCaT keratinocytes
  collective migration of HaCaT keratinocytes (scratch assay), wound closure: did not affect the collective migration

## α-cobratoxin
[2]; snake toxin from Naja kaouthia, ref [45]
  anti-cancer activity: effective anti-cancer agents

## GEDGCTAATTQLGKRYFADKSRPAWGAVECG (disulfide 5-30 (inferred)) [loop III, C-amidated peptide mimicking loop III of Lystar5: […]]
HaCaT keratinocytes
  collective migration of HaCaT keratinocytes (scratch assay), wound closure: did not affect the collective migration

B1: SLURP-1: human-secreted epithelial protein SLURP-1 (protein, UniProt P55000 23-103, looked up)
Secreted Ly-6/uPAR-related …: LKCYTCKEPMTSASCRTITRCKPEDTACMTTLVTVEAEYPFNQSPVVTRSCSSSCVATDPDSIGAAHLIFCCFRDLCNSEL
[2]; human-secreted epithelial protein, ref [46]
  anti-cancer activity: effective anti-cancer agents

B2: Lynx1: human protein Lynx1 found in the nervous system, skin, and lungs (protein, UniProt P0DP58 21-91, looked up)
Ly-6/neurotoxin-like protein 1: LDCHVCAYNGDNCFNPMRCPAMVAYCMTTRTYYTPTRMKVSKSCVPRCFETVYDGYSKHASTTSCCQYDLC
[2]; human protein found in the nervous system, skin, and lungs, ref [47],[48]
  anti-cancer activity: effective anti-cancer agents
[2]; ref [49]
  cognitive dysfunctions related to the cholinergic system decline: ameliorates cognitive dysfunctions
